Laboratory results as given in article PMC10975527 (Viruses, 2024).
Structures can show the parent of a compound that is named as a salt. Where two headings read alike, the source gives them in different places.

Columns and labels:
HBV [1] = test: HBV life cycle analysis in HepG2.2.15 cells; type: cell-based, hepatitis B virus; conditions: ETV 1 μM, GLS4 1 μM, AB-161 100 nM
HBV [2] = test: In vitro combination study in HepG2.2.15 cells; type: cell-based, hepatitis B virus; conditions: for interference with HBsAg inhibition by AB-161: HepG2.2.15, combined with AB-161; for effect on the levels of HBsAg: HepG2.2.15, compound alone; for Antagonism / Synergy / Conclusion (combination effect): Inhibitor A combined with AB-161, HBV DNA; for Antagonism / Synergy: 99.9% confidence; for Conclusion (combination effect): Prichard and Shipman criteria
[3] = plasma, cited from earlier work
dogs = conditions: dog, in vivo; cited from earlier work
rats [4] = conditions: rat, in vivo; cited from earlier work
Wild-type HBV = test: HBV polymerase variant phenotyping in Huh-7: wild-type; conditions: Hepatitis B virus, Huh-7, read-out: HBV DNA, EC50
rats [5] = conditions: cited from earlier work
monkeys = tested on: monkeys; parameters: method as in earlier work; conditions: 9 months dosing; cited from earlier work

| SMILES | HBV DNA replication (HBV [1]) | intracellular HBV RNA (pgRNA, preS/S RNA) (HBV [1]) | viral proteins: HBV core and capsid assembly (HBV [1]) | interference with HBsAg inhibition by AB-161 (HBV [2]) | effect on the levels of HBsAg (HBV [2]) | Antagonism (HBV [2]) | Synergy (HBV [2]) | Conclusion (combination effect) (HBV [2]) | further results |
| --- | --- | --- | --- | --- | --- | --- | --- | --- | --- |
| CCOC(=O)C1=C(CN2CCOCC2)NC(c2nccs2)=NC1c1ccc(F)cc1Br (centres unmarked) [GLS4] | substantially reduced | no effect | substantially reduced |  |  |  |  |  |  |
| CC(C)OC(=O)OCOP(=O)(CO[C@H](C)Cn1cnc2c(N)ncnc21)OCOC(=O)OC(C)C [TDF, tenofovir disoproxil fumarate] |  |  |  | did not interfere | do not affect | −0.43 ± 0.744 µM^2% | 0.00 ± 0.00 µM^2% | Additive |  |
| COCCCOc1cc2c(nc1OC)-c1cc(=O)c(C(=O)O)cn1[C@H](C(C)C)C2 [AB-452, (S)-6-Isopropyl-2-methoxy-3-(3-methoxypropoxy)-10-oxo-5,10-dihydro-6H-pyrido [1,2-h][1,7]naphthyridine-9-carboxylic Acid] |  |  |  |  |  |  |  |  | protein binding [3]: ~50%; histopathology of spinal nerves (dogs): axonal degeneration; findings in male reproductive tissues (rats [4]): Decreased epididymis and minimal-to-mild spermatid depletion; histopathology of sciatic nerves (rats [4]): axonal degeneration |
| C=C1[C@H](CO)[C@@H](O)C[C@@H]1n1cnc2c(=O)[nH]c(N)nc21 [ETV, entecavir] | profoundly inhibited | no effect | no effect | did not interfere | do not affect | −3.99 ± 3.59 µM^2% | 0.00 ± 0.00 µM^2% | Additive | EC50 (HBV [2]; Hepatitis B virus, HepG2.2.15, read-out: Inhibitor A EC50): 5.1 ± 1.1 nM; EC50 (Wild-type HBV): 17 nM |
| COCCCOc1cc2c(cc1OC)-c1cc(=O)c(C(=O)O)cn1[C@H](C(C)C)C2 [RG7834] |  |  |  |  |  |  |  |  | neurotoxicity (rats [5]; 6 months dosing): dose- and time-dependent neurotoxicity; male reproductive adverse events (rats [5]): abnormal sperm and testicular changes; neurotoxicity (monkeys): dose- and time-dependent neurotoxicity; protein binding ([3]; species not stated): ~56% |
